According to patent publication US20220184071A1, “GEPOTIDACIN FOR USE IN THE TREATMENT OF BACTERIAL URINARY TRACT INFECTIONS” (GlaxoSmithKline Intellectual Property Development Limited, priority 2019, published 2022):
Values after ≈ are worked out from the molar mass of the structure shown. Where two headings read alike, the source gives them in different places. Marks after values point to notes of the source that are not given here.

How the values were obtained:
K. pneumoniae = test: Phase IIa baseline uropathogen susceptibility testing (CLSI broth microdilution); assay type: cell-based, Klebsiella pneumoniae; conditions: baseline isolate
Protocol: (§1) This phase IIa single center study evaluated the safety, tolerability, pharmacokinetics, and efficacy of oral gepotidacin 1500 mg BID for 5 days in female subjects with acute cystitis. Clean catch mid-stream urine specimens were obtained for quantitative culture by standard methods. Urine samples were taken from all participants pre-treatment (baseline) and at all post-baseline visits. All urine samples were sent to a central laboratory (PPD Global Clinical Laboratories, Highland Heights, Ky., USA) for Gram stain, quantitative culture, pathogen identification and susceptibility testing. See FIG. 1 for participant disposition and study outline.
(§2) Susceptibility testing by CLSI broth microdilution and gradient diffusion (fosfomycin only) was conducted (CLSI, 2015, Methods for dilution antimicrobial susceptibility tests for bacteria that grow aerobically; approved standard-tenth edition; and CLSI, 2018. Performance Standards for Antimicrobial Susceptibility Testing; Twenty-seventh Informational Supplement M100-S28). Inclusion in the microbiological intent-to-treat population (micro-ITT), required growth of a qualifying baseline uropathogen (≥10^5 CFU/mL). See FIG. 2 for the baseline algorithm.

E. coli = test: as above; assay type: cell-based, Escherichia coli; conditions: baseline visit
Protocol: as §1, §2

C. koseri = test: as above; assay type: cell-based, Citrobacter koseri; conditions: baseline isolate
Protocol: as §1, §2

[1] = tested on: Staphylococcus epidermidis; test: MIC by CLSI broth microdilution in CAMHB and urine, Example 5 Method 2; assay type: cell-based; conditions: for Mean MIC: n = 4
Protocol: (§3) The compounds were tested in serial two-fold dilutions and the minimum inhibitory concentration (MIC) was determined as the lowest concentration of the compound that inhibited visible growth.
In particular, gepotidacin was tested against 4 strains of Staphylococcus epidermidis from the collection of isolates at Laboratory Specialists, Inc., Westlake, Ohio.
Levofloxacin was included as the comparator in the study to determine the effect of urine on the in vitro activity of gepotidacin against Staphylococcus epidermidis. MICs were determined by broth microdilution according CLSI methods.
(§4) The data shown in the table below are results from an in vitro study conducted with the same S. epidermidis isolates described above, to determine the effect of urine on the in vitro activity of gepotidacin and levofloxacin against S. epidermidis. Study strains were tested for MICs according to reference CLSI broth microdilution method using cation-adjusted Mueller Hinton Broth (CAMHB) and with the addition of 25%, 50% and 100% urine (not pH adjusted, pH 6.42) and 100% urine (pH adjusted, 7.31 and 8.07).

[2] = tested on: Staphylococcus saprophyticus; test: MIC by CLSI broth microdilution in CAMHB and urine, Example 1 Method 3; assay type: cell-based; conditions: for Mean MIC: n = 6
Protocol: Antimicrobial activity was determined by broth microdilution using the CLSI recommended procedure.
as §3
In particular, gepotidacin was tested against 6 strains of Staphylococcus saprophyticus from the collection of isolates at Laboratory Specialists, Inc., Westlake, Ohio.
Levofloxacin was included as the comparator in the study to determine the effect of urine on the in vitro activity of gepotidacin against Staphylococcus saprophyticus. MICs were determined by broth microdilution according CLSI methods.
as §4, with “saprophyticus” for “epidermidis”, “saprophyticus.” for “epidermidis.”, “MICs (minimum inhibitory concentrations)” for “MICs”

[3] = tested on: all the gram-negative anaerobe organisms combined; test: MIC by CLSI agar dilution, Example 6 Method 1; assay type: cell-based; conditions: all gram-negative anaerobes combined; for MIC90: read-out: overall MIC90
Protocol: (§5) Antimicrobial activity was determined by agar dilution using the Clinical and Laboratory Standards Institute (CLSI) recommended procedure.
(§6) The compounds were tested in serial two-fold dilutions and the minimum inhibitory concentration (MIC) was determined as the lowest concentration of the compound that inhibited visible growth. Gepotidacin was tested against 333 gram-negative anaerobic and 203 gram-positive anaerobic isolates collected from clinical samples in North America and Europe from 2000 to 2017; the majority collected from 2013 to 2016.
(§7) Ceftriaxone, clindamycin, imipenem, metronidazole, moxifloxacin and piperacillin/tazobactam were included as comparators.

[4] = tested on: gram-positive anaerobe organisms combined; test: MIC by CLSI agar dilution, Example 6 Method 1; assay type: cell-based; conditions: gram-positive anaerobes combined; for MIC90: read-out: overall MIC90
Protocol: as §5, §6, §7

qualifying uropathogens = test: Phase IIa baseline uropathogen susceptibility testing (CLSI broth microdilution); assay type: cell-based
Protocol: as §1, §2

viridans streptococci = test: MIC by CLSI broth microdilution, Example 5 Method 1; assay type: cell-based; conditions: 105 isolates
Protocol: Gepotidacin was tested against 101 coagulase-negative staphylococci and 105 viridans streptococci in serial two-fold dilutions and the minimum inhibitory concentration (MIC) was determined as the lowest concentration of the compound that inhibited visible growth. All of the clinical isolates were collected in 2009-2012 from patient infections from North America, Europe, Latin America and Asia-Pacific medical centers and were mainly obtained from patients with documented nosocomial and community-acquired respiratory tract infections, bloodstream infections and skin and skin structure infections. Ceftriaxone, meropenem, penicillin, levofloxacin, moxifloxacin and linezolid were included as comparators when testing the viridans streptococci isolates. Oxacillin, levofloxacin, moxifloxacin and linezolid, were included as comparators when testing the coagulase-negative staphylococci isolates. MICs were determined by broth microdilution according to CLSI methods.

[5] = Escherichia coli, Participant #2 (E. coli), read-out: MIC
[6] = Escherichia coli, Participant #3 (E. coli), read-out: MIC
[7] = Escherichia coli, Participant #4 (E. coli), read-out: MIC
[8] = Escherichia coli, Participant #5 (E. coli, MDR and fluoroquinolone-resistant), read-out: MIC
[9] = Escherichia coli, Participant #6 (E. coli, MDR), read-out: MIC

CC1(C)S[C@@H]2[C@H](NC(=O)[C@H](N)c3ccccc3)C(=O)N2[C@H]1C(=O)O [Ampicillin]
Susceptibility of the qualifying uropathogen (K. pneumoniae): resistant | MIC (E. coli; [5]): > 64 µg/mL | MIC (E. coli; [6]): 2 µg/mL (≈ 5.72 µM) | MIC (E. coli; [7]): 1 µg/mL (≈ 2.86 µM) | MIC (E. coli; [8]): > 64 µg/mL | MIC (E. coli; [9]): > 64 µg/mL | Susceptibility of the qualifying uropathogen (C. koseri): resistant

Cc1nnc(SCC2=C(C(=O)O)N3C(=O)[C@@H](NC(=O)Cn4cnnn4)[C@H]3SC2)s1 [Cefazolin]
MIC (E. coli; [5]): 2 µg/mL (≈ 4.4 µM) | MIC (E. coli; [6]): 4 µg/mL (≈ 8.8 µM) | MIC (E. coli; [7]): 2 µg/mL (≈ 4.4 µM) | MIC (E. coli; [8]): 4 µg/mL (≈ 8.8 µM) | MIC (E. coli; [9]): 32 µg/mL (≈ 70.4 µM)

C[C@H]1COc2c(N3CCN(C)CC3)c(F)cc3c(=O)c(C(=O)O)cn1c23 [Levofloxacin, reference compound]
Mean Dilution Difference ([1]; 25% Urine (pH 7.09) vs CAMHB): 0.25 | Mean difference ([1]; 25% Urine (pH 7.09) vs CAMHB): 0.03 | N(%) ± 1 dilution ([1]; 25% Urine (pH 7.09) vs CAMHB): 4 (100%) | N(%) ± 2 dilution ([1]; 25% Urine (pH 7.09) vs CAMHB): 4 (100%) | Mean MIC ([1]; 25% Urine (pH 7.09)): 0.17 µg/mL | Mean Dilution Difference ([1]; 50% Urine (6.99) vs CAMHB): 0.25 | Mean difference ([1]; 50% Urine (6.99) vs CAMHB): 0.03 | N(%) ± 1 dilution ([1]; 50% Urine (6.99) vs CAMHB): 4 (100%) | N(%) ± 2 dilution ([1]; 50% Urine (6.99) vs CAMHB): 4 (100%) | Mean MIC ([1]; 50% Urine (6.99)): 0.17 µg/mL | Mean Dilution Difference ([1]; 100% Urine (pH 6.42) vs CAMHB): 0.51 | Mean difference ([1]; 100% Urine (pH 6.42) vs CAMHB): 0.06 | N(%) ± 1 dilution ([1]; 100% Urine (pH 6.42) vs CAMHB): 4 (100%) | N(%) ± 2 dilution ([1]; 100% Urine (pH 6.42) vs CAMHB): 4 (100%) | Mean MIC ([1]; 100% Urine (pH 6.42)): 0.21 µg/mL | Mean Dilution Difference ([1]; 100% Urine (pH 7.31) vs CAMHB): 0.78 | Mean difference ([1]; 100% Urine (pH 7.31) vs CAMHB): 0.10 | N(%) ± 1 dilution ([1]; 100% Urine (pH 7.31) vs CAMHB): 3 (75%) | N(%) ± 2 dilution ([1]; 100% Urine (pH 7.31) vs CAMHB): 4 (100%) | Mean MIC ([1]; 100% Urine (pH 7.31)): 0.25 µg/mL | Mean Dilution Difference ([1]; 100% Urine (pH 8.07) vs CAMHB): 1.78 | Mean difference ([1]; 100% Urine (pH 8.07) vs CAMHB): 0.35 | N(%) ± 1 dilution ([1]; 100% Urine (pH 8.07) vs CAMHB): 2 (50%) | N(%) ± 2 dilution ([1]; 100% Urine (pH 8.07) vs CAMHB): 3 (75%) | Mean Dilution Difference ([1]; 100% Urine (pH 8.07) vs CAMHB, listed as levofloxacin): approximately 1.8 | Mean MIC ([1]; 100% Urine (pH 8.07)): 0.5 µg/mL | Mean MIC ([1]; CAMHB (ref. method, pH 7.2)): 0.15 µg/mL | Mean Dilution Difference ([2]; 25% Urine (pH 7.09) vs CAMHB): 0.50 | Mean difference ([2]; 25% Urine (pH 7.09) vs CAMHB): 0.33 | N(%) ± 1 dilution ([2]; 25% Urine (pH 7.09) vs CAMHB): 6 (100%) | N(%) ± 2 dilution ([2]; 25% Urine (pH 7.09) vs CAMHB): 6 (100%) | Mean MIC ([2]; 25% Urine (pH 7.09)): 1.12 µg/mL | Mean Dilution Difference ([2]; 50% Urine (6.99) vs CAMHB): 0.17 | Mean difference ([2]; 50% Urine (6.99) vs CAMHB): 0.10 | N(%) ± 1 dilution ([2]; 50% Urine (6.99) vs CAMHB): 6 (100%) | N(%) ± 2 dilution ([2]; 50% Urine (6.99) vs CAMHB): 6 (100%) | Mean MIC ([2]; 50% Urine (6.99)): 0.89 µg/mL | Mean Dilution Difference ([2]; 100% Urine (pH 6.42) vs CAMHB): 0.67 | Mean difference ([2]; 100% Urine (pH 6.42) vs CAMHB): 0.47 | N(%) ± 1 dilution ([2]; 100% Urine (pH 6.42) vs CAMHB): 6 (100%) | N(%) ± 2 dilution ([2]; 100% Urine (pH 6.42) vs CAMHB): 6 (100%) | Mean MIC ([2]; 100% Urine (pH 6.42)): 1.26 µg/mL | Mean Dilution Difference ([2]; 100% Urine (pH 7.31) vs CAMHB): 1.50 | Mean difference ([2]; 100% Urine (pH 7.31) vs CAMHB): 1.45 | N(%) ± 1 dilution ([2]; 100% Urine (pH 7.31) vs CAMHB): 2 (33.3%) | N(%) ± 2 dilution ([2]; 100% Urine (pH 7.31) vs CAMHB): 6 (100%) | Mean MIC ([2]; 100% Urine (pH 7.31)): 2.24 µg/mL | Mean Dilution Difference ([2]; 100% Urine (pH 8.07) vs CAMHB): 1.17 | Mean difference ([2]; 100% Urine (pH 8.07) vs CAMHB): 0.99 | N(%) ± 1 dilution ([2]; 100% Urine (pH 8.07) vs CAMHB): 5 (83.3%) | N(%) ± 2 dilution ([2]; 100% Urine (pH 8.07) vs CAMHB): 6 (100%) | Mean MIC ([2]; 100% Urine (pH 8.07)): 1.78 µg/mL | Mean MIC ([2]; CAMHB (ref. method, pH 7.2)): 0.79 µg/mL

CO/N=C(\C(=O)N[C@@H]1C(=O)N2C(C(=O)O)=C(CSc3nc(=O)c(=O)[nH]n3C)CS[C@H]12)c1csc(N)n1 [ceftriaxone]
MIC90 [3]: 512 µg/mL | MIC90 [4]: 256 µg/mL

CCC[C@@H]1C[C@@H](C(=O)N[C@@H]([C@H]2O[C@H](SC)[C@H](O)[C@@H](O)[C@H]2O)[C@H](C)Cl)N(C)C1 [clindamycin]
MIC90 [3]: > 8 µg/mL | MIC90 [4]: > 8 µg/mL

C[C@@H]1O[C@@H]1P(=O)(O)O [fosfomycin]
Resistance among the baseline uropathogens recovered (qualifying uropathogens): None of the baseline uropathogens recovered were resistant

C[C@@H](O)[C@H]1C(=O)N2C(C(=O)O)=C(SCCN=CN)C[C@H]12 [imipenem]
MIC90 [3]: 0.5 µg/mL | MIC90 [4]: 8 µg/mL

C[C@@H](O)[C@H]1C(=O)N2C(C(=O)O)=C(S[C@@H]3CN[C@H](C(=O)N(C)C)C3)[C@H](C)[C@H]12 [meropenem]
Resistance among the baseline uropathogens recovered (qualifying uropathogens): None of the baseline uropathogens recovered were resistant | MIC90 (viridans streptococci): 0.25 µg/mL (≈ 0.652 µM)

Cc1ncc([N+](=O)[O-])n1CCO [metronidazole]
MIC90 [3]: 2 µg/mL | MIC90 [4]: 0.5 µg/mL

COc1c(N2C[C@@H]3CCCN[C@@H]3C2)c(F)cc2c(=O)c(C(=O)O)cn(C3CC3)c12 [moxifloxacin]
MIC90 (viridans streptococci): 0.25 µg/mL (≈ 0.623 µM) | MIC90 [3]: 8 µg/mL | MIC90 [4]: > 8 µg/mL

Trimethoprim-sulfamethoxazole
MIC (E. coli; Participant #2 (E. coli)): 0.03 µg/mL | MIC (E. coli; Participant #3 (E. coli)): 0.03 µg/mL | MIC (E. coli; Participant #4 (E. coli)): 0.03 µg/mL | MIC (E. coli; Participant #5 (E. coli, MDR and fluoroquinolone-resistant)): >8^b μg/mL | MIC (E. coli; Participant #6 (E. coli, MDR)): >8^b μg/mL

piperacillin/tazobactam
Resistance among the baseline uropathogens recovered (qualifying uropathogens): None of the baseline uropathogens recovered were resistant | overall MIC90 [3]: 16 µg/mL | overall MIC90 [4]: 16 µg/mL
